Reference: patent US20120177710A1, “TOPICALLY APPLICABLE COMPOSITION FOR USE AS A SKIN BLEACHING AGENT” (DSM IP ASSETS B.V., priority 2005, published 2012)

System: MelanoDerm Mel-300B tissues of the dark skin type
Test: Reduction in melanin content after treatment of MelanoDerm tissues of the dark skin type
Type: cell-based
Conditions: absorption at 450 nm, control = 100; for Melanin content in % 8 days of treatment, measured after 16 days: 10 mM per tissue topically, then a further eight days in normal medium without test substance; for Melanin content in % after 16 days of treatment: test substance applied topically as aqueous solution, 10 mM per tissue, renewed every 48 hours
Description: Determination of the Reduction in Melanin Content after the Treatment of Melanoderm Tissues of the Dark Skin Type with Test Substances
Test substances: compound 1 and cystamine as standard • Cultivation of the Tissues and Application of the Test Substances
The tissues, treated according to the manufacturer's instructions, were transferred to 6-well plates containing 3 ml of medium per well. The tissues were placed on membrane inserts (Transwell-Clear from Corning). 2 ml of medium were pipetted into the lower compartment and 1 ml of medium into the upper compartment. The test substances were applied topically as an aqueous solution at a rate of 10 mM per tissue. The medium and the test substance were renewed every 48 hours by rinsing the surface of the tissues with 500 μl of warm PBS and applying fresh test substance. After 8 days the test substance was removed from two tissues per treatment type and cultivation was continued for a further eight days with normal medium not containing test substance. The other two tissues per treatment type were incubated further with test substance. The experiment lasted a total of 16 days. • Extraction of the Melanin
The membranes with the pigmented epidermis were cut out of the holders with a scalpel and transferred to screw-capped Eppendorf tubes. 200 μl of 1% SDS in 10 mM Tris, 0.05 mM EDTA pH 6.8 and 20 μl of Proteinase K were pipetted into each tube. The Eppendorf tubes were incubated overnight in a Thermomixer at 45° C. The following morning a further 20 μl of Proteinase K were pipetted into each tube and incubation was continued for 6 hours. The lysate was rendered basic by the addition of 25 μl of 500 mM NaHCO3 and incubated in the Thermomixer for 30 min at 80° C. Fats and proteins were removed from the lysate by treatment with 200 μl of methanol/chloroform (2:1). 3×100 μl of supernatant were pipetted into a 96-well plate and the absorption was measured at 450 nm. • Results

Row | SMILES | Melanin content in % 8 days of treatment, measured after 16 days | Melanin content in % after 16 days of treatment
1 | N=C(N)NCCSSCCNC(=N)N [Compound 1] | 23% | 12%
2 | NCCSSCCN [Cystamine (standard), bis(2-aminoethyl)disulfide] | 52% | 30%
